Assay results from patent US11166928B2, “Migraine prevention and treatment” (UNIVERSITATS-KINDERSPITAL, priority 2016, dated 2021).
Entries after “also recorded” stand apart in the source; their conditions may differ. Where two headings read alike, the source gives them in different places.

Assays:
migraine patients [1] = assay: Tolerability, adverse events and palatability in the pilot experiments; format: in vivo, human
Excerpt: (§1) Monthly migraine attack frequency was summarized over the last 3 months and the average was used for baseline comparison. Patients were either instructed to take 26 g LL or 26 g LY in two daily doses (one hour before breakfast and one hour before dinner, respectively) for the duration of 4 weeks. They were instructed to refrain from any other changes in medication or food habits for the duration of that period. The primary outcome measure was changes in days with migraines from baseline. Days with migraine were recorded using a mobile app (myheadache.ch) or a pen and paper diary and averaged across participants.
as §1, with “take 20 g βHB,” for “take”
as §1, with “were” for “were either”, “10” for “26”, “racemic βHB” for “LL or 26 g LY in two daily doses (one hour before breakfast and one hour before dinner, respectively)”, “8 weeks, followed by one week wash-out period and then 8 weeks of 10 g D-βHB daily.” for “4 weeks.”

migraine patients [2] = assay: as above; format: in vivo, human; settings: 40 g daily, 4 weeks; 2 patients
[3] = design: species or system human; settings: in vivo, po
Excerpt: (§2) Patients diagnosed with medium-high frequency or chronic migraine according to International Headache Society Classification version 3 by an experienced neurologist were included. They were excluded if they had any significant other neurological, psychiatric or medical disorder. A minimum average of 6 migraine days/month was required during the last 3 months. Ten migraine patients (age range: 25-61 years, 1 male, attack frequency range: 6-24 migraine days/months) were included in the pilot study and randomly assigned to four conditions: 1) L-leucine (LL), 2) L-lysine (LY), 3) racemic βHB, 4) D-βHB.
(§3) L-leucine (LL) and L-lysine (LY) are the two completely ketogenic amino acids. Via various steps, unused ketogenic amino acids (i.e. leucine or lysine) are metabolised into KB. While this is commonly known, to the best of our knowledge no data exists on the extent and time frame of such ketogenic amino acids to raise blood βHB levels. For the pharmacokinetics, four migraine patients were instructed to ingest either 13 g LL or 13 g LY on an empty stomach. Blood βHB and glucose concentrations were measured using a portable point-of-care blood ketone meter (Precision Xtra®) and matching test stripes at 5 points in time: 1) Baseline (directly before consumption), 2) 0.5 h after consumption, 3) 1 h after consumption, 4) 2 h after consumption, 5) 3 h after consumption and 6) 4 h after consumption. 13 g roughly correspond to the same number of particles (mmol) as 10 g βHB. Highest average concentrations of βHB were found after 2 and 3 h (mean=0.35 mmol/I; SEM=0.05) and remained levels to remain elevated for over 4 hours (see FIG. 1).
For determining pharmacokinetics, the patients were given 10 g racemic beta-hydroxybutyrate (βHB) orally dissolved in water in 3 different conditions: (1) post cibum (after meal) (2) ante cibum (before meal) (3) 1 hour before meal. Blood βHB and glucose concentrations were measured using a portable point-of-care blood ketone meter (Precision Xtra®) and matching test stripes at 5 points in time: 1) Baseline (directly before consumption), 2) 0.5 h after consumption, 3) 1 h after consumption, 4) 2 h after consumption, 5) 3 h after consumption and 6) 4 h after consumption. […] The levels dropped to near baseline after 2 hours.
Participants were given 10 g D-beta-hydroxybutyrate (βHB) orally dissolved in water in a fasted state. Blood βHB and glucose concentrations were measured using a portable point-of-care blood ketone meter (Precision Xtra®) and matching test stripes at 5 points in time: 1) Baseline (directly before consumption), 2) 0.5 h after consumption, 3) 1 h after consumption, 4) 2 h after consumption, 5) 3 h after consumption and 6) 4 h after consumption (see FIG. 5A). As with racemic βHB, highest average concentrations of βHB were found after approximately 1 h (mean=1.94 mmol/I; SEM=0.48).

migraine patients [4] = assay: Open-label pilot intervention: change in days with migraine from baseline (headache diary); format: in vivo, human
Excerpt: as §2, with “D-βHB. […]” for “D-βHB.”
as §1, with “take 20 g βHB,” for “take”
Those two chronic migraineurs (20 or 22 migraine days/month) where instructed to take 20 g racemic βHB daily for 4 weeks and after a 1 week washout period double the dose to 40 g βHB for the following 4 weeks. Migraine days were recorded for the duration of the intervention and patients were instructed to refrain from any other life-style or medication changes. The mean baseline attack frequency was 21 migraine days (SEM=1) and dropped to 11.5 days after 4 weeks of 20 g βHB daily and 6 days after 4 weeks of 40 g βHB daily (see FIG. 4 A). This preventive effect is roughly proportional to the increase in dose, with 20 g βHB leading to 46% reduction in migraine days from baseline (SEM=18.86) and 40 g βHB to a 72% reduction (SEM=12.95; see FIG. 4 B).
as §1, with “were” for “were either”, “10” for “26”, “racemic βHB” for “LL or 26 g LY in two daily doses (one hour before breakfast and one hour before dinner, respectively)”, “8 weeks, followed by one week wash-out period and then 8 weeks of 10 g D-βHB daily.” for “4 weeks.”

[5] = Blood glucose levels after a single oral dose, measured at the same time as βHB; format: in vivo, human; settings: 10 g single oral dose, ante cibum/fasted
Excerpt: as §3, with “13 g roughly correspond to the same number of particles (mmol) as 10 g βHB. Highest average concentrations of βHB were found after 2 and 3 h (mean=0.35 mmol/I; SEM=0.05) and remained levels to remain elevated for over 4 hours (see FIG. 1).” left out
For determining pharmacokinetics, the patients were given 10 g racemic beta-hydroxybutyrate (βHB) orally dissolved in water in 3 different conditions: (1) post cibum (after meal) (2) ante cibum (before meal) (3) 1 hour before meal. Blood βHB and glucose concentrations were measured using a portable point-of-care blood ketone meter (Precision Xtra®) and matching test stripes at 5 points in time: 1) Baseline (directly before consumption), 2) 0.5 h after consumption, 3) 1 h after consumption, 4) 2 h after consumption, 5) 3 h after consumption and 6) 4 h after consumption. […]

[6] = 10 g daily, 8 weeks, 2 patients, mean baseline 13.5 days

## CC(O)CC(=O)O (racemic) [racemic βHB, beta-hydroxybutyric acid]
Migraine patients [1]; 20 g daily, 4 weeks, 5 patients
  Adverse events / tolerability: severe nausea and vertigo; also recorded: gastrointestinal upset; also recorded: problematic
Migraine patients [2]
  Side-effects at increased dose: increased side-effects further in both patients; also recorded: exacerbated the side-effects
[3]; human
  Half-life of blood βHB elevation (in words): very short
  Time after which blood βHB levels dropped back to (near) baseline: 2 h
  Time of highest average βHB concentration: approximately 1 h
[3]
  Peak blood βHB level relative to LL: approximately double
Migraine patients [4]; 10 g daily, 8 weeks, 2 high-frequency migraineurs (17 and 10 migraine days/month)
  Average reduction in migraine days compared to baseline: 18.5%
Migraine patients [4]; [6]
  Mean migraine days after intervention: 11 days
Migraine patients [4]; 20 g daily in two doses, 4 weeks, 4 medium-high frequency migraineurs (6-22 migraine days/month)
  Average reduction in migraine days compared to baseline: 51%
Migraine patients [4]; 20 g daily, 4 weeks, 2 chronic migraineurs (20 or 22 migraine days/month)
  Reduction in migraine days from baseline: 46%
Migraine patients [4]; 20 g daily, 4 weeks, 2 chronic migraineurs, mean baseline 21 migraine days
  Mean migraine days after intervention: 11.5 days
Migraine patients [4]; 20 g daily, 4 weeks, mean baseline 16.25 days
  Mean migraine days after intervention: 8 days
Migraine patients [4]; 20 g daily, 4 weeks, range across patients
  Range of reduction in migraine days compared to baseline: 25-80%
Migraine patients [4]; 40 g daily, 4 weeks, 2 chronic migraineurs, mean baseline 21 migraine days
  Mean migraine days after intervention: 6 days
[5]
  Change in blood glucose levels after consumption: substantial drop; also recorded: drop in blood glucose

## CC(O)CC(=O)O (racemic) [βHB, beta-hydroxybutyric acid]
Migraine patients [1]; in comparison to the ketogenic amino acids, dose and isomer not stated
  Tolerability (in words): well tolerated
Migraine patients [4]; 20 g daily, 4 weeks, median at baseline 18
  Median migraine days after the intervention: 7 migraine days

## CC(O)CC(=O)O [D-βHB, D beta-hydroxybutyric (βHB) acid]
Migraine patients [1]; 10 g daily, 8 weeks (2 months), 2 patients
  Side-effects / tolerability: No side-effects; also recorded: much better tolerated; also recorded: fewer gastrointestinal side-effects
[3]
  Time of highest average βHB concentration: approximately 1 h
Migraine patients [4]; [6]
  Mean migraine days after intervention: 4.25 days
[5]
  Change in blood glucose levels after consumption: completely stable; also recorded: does not seem to lead to a potentially unwanted drop in blood glucose levels; also recorded: no concomitant drop in blood glucose

## CC(C)C[C@H](N)C(=O)O [LL, L-leucine, reference compound]
Migraine patients [1]; 26 g daily (13 g twice a day)
  Adverse events / tolerability: diarrhoea or nausea
[3]; human
  Time of highest average βHB concentration: 2 and 3 h

## NCCCC[C@H](N)C(=O)O [LY, L-lysine, reference compound]
Migraine patients [1]; 26 g daily (13 g twice a day)
  Adverse events / tolerability: diarrhoea or nausea
